{"source": "ChEMBL document CHEMBL1201862", "about": "“PubChem BioAssay data set” (2004)", "key": {"HeLa": {"tested_on": "HeLa", "test": "Cytotoxicity counterscreen assay for transcriptional activators of heat shock protein 70 (Hsp70). [Related pubchem assays: 1203, 1252 ]", "type": "functional", "conditions": "Homo sapiens"}, "[1]": {"biological_target": "Sphingosine 1-phosphate receptor 4 (Homo sapiens, UniProt O95977)", "sequence (O95977 whole entry)": "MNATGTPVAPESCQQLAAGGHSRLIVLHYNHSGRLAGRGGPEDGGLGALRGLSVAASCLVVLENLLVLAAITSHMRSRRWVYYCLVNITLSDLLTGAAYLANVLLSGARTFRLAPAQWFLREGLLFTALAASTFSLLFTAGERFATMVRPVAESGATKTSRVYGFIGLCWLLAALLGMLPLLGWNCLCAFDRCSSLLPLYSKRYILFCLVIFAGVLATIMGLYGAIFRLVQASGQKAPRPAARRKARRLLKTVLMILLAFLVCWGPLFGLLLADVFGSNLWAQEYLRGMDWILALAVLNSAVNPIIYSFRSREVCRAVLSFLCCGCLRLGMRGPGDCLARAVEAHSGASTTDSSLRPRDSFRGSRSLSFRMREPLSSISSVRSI", "test": "Fluorescence dose response cell-based high throughput screening assay for antagonists of the Sphingosine 1-Phosphate Receptor 4 (S1P4). [Related pubchem assays: 1524 (Confirmation in triplicates.), 1510 (Primary screen.)]", "type": "functional"}, "[2]": {"biological_target": "Sphingosine 1-phosphate receptor 1 (Homo sapiens, UniProt P21453)", "sequence (P21453 whole entry)": "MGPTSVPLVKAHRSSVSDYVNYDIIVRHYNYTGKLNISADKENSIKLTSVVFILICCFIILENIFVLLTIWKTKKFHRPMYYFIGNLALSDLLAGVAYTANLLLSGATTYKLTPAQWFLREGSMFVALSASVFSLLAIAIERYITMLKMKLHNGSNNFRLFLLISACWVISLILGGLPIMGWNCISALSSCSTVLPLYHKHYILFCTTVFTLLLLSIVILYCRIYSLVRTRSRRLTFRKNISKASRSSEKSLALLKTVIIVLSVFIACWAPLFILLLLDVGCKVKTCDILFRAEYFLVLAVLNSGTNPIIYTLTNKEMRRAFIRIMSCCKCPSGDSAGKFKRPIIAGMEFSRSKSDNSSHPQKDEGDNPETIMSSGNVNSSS", "type": "functional"}, "[3]": {"biological_target": "T1, Heat shock factor protein 1 (Mus musculus, UniProt P38532)", "T1 sequence (P38532 whole entry)": "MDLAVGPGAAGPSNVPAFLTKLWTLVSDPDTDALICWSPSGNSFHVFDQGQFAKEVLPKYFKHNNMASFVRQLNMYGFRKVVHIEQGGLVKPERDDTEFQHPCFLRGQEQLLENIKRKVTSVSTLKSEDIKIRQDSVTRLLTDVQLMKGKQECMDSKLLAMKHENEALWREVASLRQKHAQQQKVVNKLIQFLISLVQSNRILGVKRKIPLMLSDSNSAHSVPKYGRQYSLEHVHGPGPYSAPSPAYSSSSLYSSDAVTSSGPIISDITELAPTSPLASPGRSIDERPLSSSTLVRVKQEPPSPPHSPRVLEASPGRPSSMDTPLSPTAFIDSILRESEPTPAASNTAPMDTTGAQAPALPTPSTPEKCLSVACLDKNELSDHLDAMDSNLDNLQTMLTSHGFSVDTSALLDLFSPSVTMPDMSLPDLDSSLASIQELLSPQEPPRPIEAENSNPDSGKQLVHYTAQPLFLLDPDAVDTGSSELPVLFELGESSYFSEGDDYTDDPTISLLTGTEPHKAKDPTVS", "test": "HSF1 potentiators in luciferase reporter cells, confirmation, cell-based, NIH3T3, luminescence, dose retest (AID 435004);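 further: stress induced by proteasome inhibitor MG132 added 30 min after compound; actives raise luminescence as potentiators of the MG132 stress response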", "type": "functional"}, "[4]": {"biological_target": "T2, Microphthalmia-associated transcription factor (Homo sapiens, UniProt O75030)", "T2 sequence (O75030 whole entry)": "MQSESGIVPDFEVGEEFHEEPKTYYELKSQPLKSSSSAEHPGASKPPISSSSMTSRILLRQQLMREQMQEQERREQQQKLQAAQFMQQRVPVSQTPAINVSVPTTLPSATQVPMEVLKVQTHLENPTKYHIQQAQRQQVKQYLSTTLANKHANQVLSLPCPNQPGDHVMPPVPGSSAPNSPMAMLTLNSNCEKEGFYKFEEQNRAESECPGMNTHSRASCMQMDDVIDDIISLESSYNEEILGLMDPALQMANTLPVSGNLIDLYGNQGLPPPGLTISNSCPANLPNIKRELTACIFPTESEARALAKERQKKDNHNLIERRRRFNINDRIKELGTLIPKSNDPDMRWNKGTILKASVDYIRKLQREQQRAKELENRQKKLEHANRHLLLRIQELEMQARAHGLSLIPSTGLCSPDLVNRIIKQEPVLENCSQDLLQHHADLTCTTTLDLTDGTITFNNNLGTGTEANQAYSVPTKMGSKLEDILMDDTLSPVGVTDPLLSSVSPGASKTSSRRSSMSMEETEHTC", "test": "TRPM1 promoter luciferase signal decrease, dose response, MITF inhibitor project, cell-based, SK-MEL-5, cherry-picked, set 3 (AID 493073)", "type": "functional"}, "Paired box protein Pax-8": {"biological_target": "Paired box protein Pax-8 (Homo sapiens, UniProt Q06710)", "sequence (Q06710 whole entry)": "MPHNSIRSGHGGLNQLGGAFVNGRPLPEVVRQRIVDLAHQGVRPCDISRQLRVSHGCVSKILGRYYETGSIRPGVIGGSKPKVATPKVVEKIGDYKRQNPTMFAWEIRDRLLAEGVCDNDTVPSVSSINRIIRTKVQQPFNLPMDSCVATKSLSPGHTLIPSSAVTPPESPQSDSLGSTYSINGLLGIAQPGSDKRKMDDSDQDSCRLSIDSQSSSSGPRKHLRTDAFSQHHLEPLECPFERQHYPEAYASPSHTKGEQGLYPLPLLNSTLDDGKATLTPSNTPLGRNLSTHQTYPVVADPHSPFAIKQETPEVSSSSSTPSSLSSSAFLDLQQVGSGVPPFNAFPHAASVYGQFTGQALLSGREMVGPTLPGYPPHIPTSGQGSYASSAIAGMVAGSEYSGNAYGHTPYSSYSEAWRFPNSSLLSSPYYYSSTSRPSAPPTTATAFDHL", "test": "inhibitors of PAX8-driven TPO luciferase reporter, dose response, RMG-I cells, cherry-pick (AID 687027);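 further: luciferase reporter driven by Pax8 target thyroperoxidase promoter measured by SteadyGlo luminescence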", "type": "functional, cell-based"}, "Vero": {"tested_on": "Vero", "test": "cytotoxicity of synthesized analogs in Vero cells, SAR follow-up, cytotoxicity control for West Nile virus antiviral project, cell-based, set II (AID 2402)", "type": "functional", "conditions": "Chlorocebus sabaeus"}, "[5]": {"test": "A Cell Based Assay for the Identification of Probe candidate Compounds with Anti- Venezuelan Equine Encephalitis virus. [Related pubchem assays: 2409, 2419, 1621, 2238, 2405, 2024, 2065, 2402, 2414, 1635, 1650, 2244 ]", "type": "functional"}, "Kallikrein-7": {"biological_target": "Kallikrein-7 (Homo sapiens, UniProt P49862)", "sequence (P49862 whole entry)": "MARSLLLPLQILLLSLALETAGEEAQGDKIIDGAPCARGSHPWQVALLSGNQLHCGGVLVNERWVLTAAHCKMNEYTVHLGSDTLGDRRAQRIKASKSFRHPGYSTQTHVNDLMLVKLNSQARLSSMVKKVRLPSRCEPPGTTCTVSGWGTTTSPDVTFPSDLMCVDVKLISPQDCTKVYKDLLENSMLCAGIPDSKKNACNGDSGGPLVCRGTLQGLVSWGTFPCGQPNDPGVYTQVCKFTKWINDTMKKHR", "test": "Fluorescence Intensity-based biochemical primary high throughput dose response assay to identify activators of kallikrein-7 (K7) zymogen."}, "Leucine aminopeptidase": {"biological_target": "T3, Leucine aminopeptidase (Plasmodium falciparum 3D7, UniProt Q8IL11)", "T3 sequence (Q8IL11 whole entry)": "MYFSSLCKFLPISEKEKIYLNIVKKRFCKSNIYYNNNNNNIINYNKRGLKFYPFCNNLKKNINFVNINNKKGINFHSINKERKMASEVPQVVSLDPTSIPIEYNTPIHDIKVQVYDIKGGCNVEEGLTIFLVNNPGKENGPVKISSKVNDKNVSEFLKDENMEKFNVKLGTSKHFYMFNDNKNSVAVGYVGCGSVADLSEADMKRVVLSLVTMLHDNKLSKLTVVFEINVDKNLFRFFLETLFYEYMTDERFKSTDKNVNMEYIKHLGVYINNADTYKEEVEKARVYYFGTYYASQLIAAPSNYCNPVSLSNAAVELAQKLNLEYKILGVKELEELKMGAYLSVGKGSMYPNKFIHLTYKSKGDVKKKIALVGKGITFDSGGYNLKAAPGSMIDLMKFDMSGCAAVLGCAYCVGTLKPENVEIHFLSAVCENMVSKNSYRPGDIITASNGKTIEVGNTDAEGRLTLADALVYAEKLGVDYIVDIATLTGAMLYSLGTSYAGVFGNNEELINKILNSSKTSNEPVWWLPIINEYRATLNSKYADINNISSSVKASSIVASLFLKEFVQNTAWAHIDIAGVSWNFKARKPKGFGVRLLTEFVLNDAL", "test": "P. falciparum M17LAP inhibitors, primary screen, biochemical, fluorogenic H-Leu-NHMec substrate, 1536-well (AID 1619)", "type": "functional"}, "[6]": {"test": "enhancers of respiration in Yfh1-depleted yeast, dose response, Friedreich's ataxia, plus single-dose screen (AID 1465);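 further: yeast depleted of Yfh1p frataxin homolog grown on glycerol needing respiration; WST-1 tetrazolium dye reduction as measure of cellular dehydrogenase metabolic activity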", "type": "functional"}, "Estrogen receptor": {"biological_target": "T4, Estrogen receptor (Homo sapiens, UniProt P03372)", "T4 sequence (P03372 whole entry)": "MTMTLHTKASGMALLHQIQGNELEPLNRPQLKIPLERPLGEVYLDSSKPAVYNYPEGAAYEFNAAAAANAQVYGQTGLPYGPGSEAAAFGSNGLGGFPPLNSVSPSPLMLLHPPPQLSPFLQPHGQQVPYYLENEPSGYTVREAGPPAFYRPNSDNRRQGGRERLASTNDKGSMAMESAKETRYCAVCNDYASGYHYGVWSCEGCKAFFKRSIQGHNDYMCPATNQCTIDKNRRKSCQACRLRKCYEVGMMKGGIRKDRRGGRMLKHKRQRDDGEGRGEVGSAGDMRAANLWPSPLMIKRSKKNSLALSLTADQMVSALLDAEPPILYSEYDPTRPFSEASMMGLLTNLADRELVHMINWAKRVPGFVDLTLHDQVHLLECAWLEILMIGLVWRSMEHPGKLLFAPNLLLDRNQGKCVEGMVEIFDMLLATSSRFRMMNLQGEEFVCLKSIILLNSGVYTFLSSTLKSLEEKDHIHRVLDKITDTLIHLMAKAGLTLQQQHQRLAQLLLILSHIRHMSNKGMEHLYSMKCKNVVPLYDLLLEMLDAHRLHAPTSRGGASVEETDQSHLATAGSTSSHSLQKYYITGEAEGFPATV", "test": "ERα–SRC-3 coactivator interaction inhibitors, confirmation, orthogonal assay, biochemical, ELISA, streptavidin-HRP readout (AID 1079)"}, "[7]": {"test": "Luminescence-based counterscreen assay for KLF5 inhibitors: dose response cell-based high throughput screening assay to identify cytotoxic compounds using the IEC-6 intestinal epithelial cell line. [Related pubchem assays: 1700 (Primary screen.), 1834 (Confirmation screen.), 1858 (Summary AID.), 1905 (Counterscreen.)]", "type": "functional"}, "Exodeoxyribonuclease V": {"biological_target": "Exodeoxyribonuclease V (Escherichia coli (strain K12), UniProt P04993+P07648+P08394)", "sequence (P04993 whole entry)": "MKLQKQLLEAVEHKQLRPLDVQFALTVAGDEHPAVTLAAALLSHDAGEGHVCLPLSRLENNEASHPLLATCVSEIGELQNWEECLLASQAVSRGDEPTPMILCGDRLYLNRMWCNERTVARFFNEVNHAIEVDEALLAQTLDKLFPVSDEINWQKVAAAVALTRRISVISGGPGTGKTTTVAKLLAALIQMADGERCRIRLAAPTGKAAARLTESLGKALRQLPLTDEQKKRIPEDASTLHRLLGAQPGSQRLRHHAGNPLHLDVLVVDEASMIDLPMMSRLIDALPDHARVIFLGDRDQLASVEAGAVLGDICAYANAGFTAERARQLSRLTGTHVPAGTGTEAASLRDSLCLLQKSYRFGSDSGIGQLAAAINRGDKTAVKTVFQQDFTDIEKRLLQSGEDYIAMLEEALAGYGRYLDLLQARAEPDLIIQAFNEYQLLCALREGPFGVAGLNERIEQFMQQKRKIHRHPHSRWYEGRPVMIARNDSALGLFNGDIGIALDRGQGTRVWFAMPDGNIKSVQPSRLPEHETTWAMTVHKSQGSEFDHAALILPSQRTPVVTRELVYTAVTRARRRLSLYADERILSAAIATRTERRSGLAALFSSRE", "sequence (P07648 whole entry)": "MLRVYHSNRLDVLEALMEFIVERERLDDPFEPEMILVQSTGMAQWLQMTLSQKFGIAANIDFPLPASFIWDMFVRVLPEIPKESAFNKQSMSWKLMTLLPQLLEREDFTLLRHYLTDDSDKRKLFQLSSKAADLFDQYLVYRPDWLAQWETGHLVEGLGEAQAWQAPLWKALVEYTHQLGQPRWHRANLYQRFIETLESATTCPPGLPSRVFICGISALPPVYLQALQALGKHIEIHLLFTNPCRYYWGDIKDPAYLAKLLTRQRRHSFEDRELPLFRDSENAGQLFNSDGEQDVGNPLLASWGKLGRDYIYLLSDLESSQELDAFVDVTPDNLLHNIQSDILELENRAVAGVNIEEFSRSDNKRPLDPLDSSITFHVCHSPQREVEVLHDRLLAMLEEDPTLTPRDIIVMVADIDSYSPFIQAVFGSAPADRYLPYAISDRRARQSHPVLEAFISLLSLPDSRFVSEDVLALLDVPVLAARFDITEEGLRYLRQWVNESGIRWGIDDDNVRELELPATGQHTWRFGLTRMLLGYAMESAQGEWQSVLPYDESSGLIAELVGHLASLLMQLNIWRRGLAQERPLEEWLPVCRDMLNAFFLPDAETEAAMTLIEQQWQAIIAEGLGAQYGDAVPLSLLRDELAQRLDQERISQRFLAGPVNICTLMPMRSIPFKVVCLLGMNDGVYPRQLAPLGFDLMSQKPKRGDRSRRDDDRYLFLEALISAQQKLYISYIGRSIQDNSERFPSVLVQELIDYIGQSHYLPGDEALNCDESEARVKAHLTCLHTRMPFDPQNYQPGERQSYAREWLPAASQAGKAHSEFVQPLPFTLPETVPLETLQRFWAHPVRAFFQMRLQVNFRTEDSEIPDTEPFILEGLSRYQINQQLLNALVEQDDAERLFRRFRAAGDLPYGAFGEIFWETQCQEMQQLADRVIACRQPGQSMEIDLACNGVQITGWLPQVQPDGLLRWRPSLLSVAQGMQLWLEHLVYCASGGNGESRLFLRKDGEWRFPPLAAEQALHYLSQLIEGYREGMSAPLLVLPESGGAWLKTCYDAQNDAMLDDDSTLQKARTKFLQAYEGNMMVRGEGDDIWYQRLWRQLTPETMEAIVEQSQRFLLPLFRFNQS", "sequence (P08394 whole entry)": "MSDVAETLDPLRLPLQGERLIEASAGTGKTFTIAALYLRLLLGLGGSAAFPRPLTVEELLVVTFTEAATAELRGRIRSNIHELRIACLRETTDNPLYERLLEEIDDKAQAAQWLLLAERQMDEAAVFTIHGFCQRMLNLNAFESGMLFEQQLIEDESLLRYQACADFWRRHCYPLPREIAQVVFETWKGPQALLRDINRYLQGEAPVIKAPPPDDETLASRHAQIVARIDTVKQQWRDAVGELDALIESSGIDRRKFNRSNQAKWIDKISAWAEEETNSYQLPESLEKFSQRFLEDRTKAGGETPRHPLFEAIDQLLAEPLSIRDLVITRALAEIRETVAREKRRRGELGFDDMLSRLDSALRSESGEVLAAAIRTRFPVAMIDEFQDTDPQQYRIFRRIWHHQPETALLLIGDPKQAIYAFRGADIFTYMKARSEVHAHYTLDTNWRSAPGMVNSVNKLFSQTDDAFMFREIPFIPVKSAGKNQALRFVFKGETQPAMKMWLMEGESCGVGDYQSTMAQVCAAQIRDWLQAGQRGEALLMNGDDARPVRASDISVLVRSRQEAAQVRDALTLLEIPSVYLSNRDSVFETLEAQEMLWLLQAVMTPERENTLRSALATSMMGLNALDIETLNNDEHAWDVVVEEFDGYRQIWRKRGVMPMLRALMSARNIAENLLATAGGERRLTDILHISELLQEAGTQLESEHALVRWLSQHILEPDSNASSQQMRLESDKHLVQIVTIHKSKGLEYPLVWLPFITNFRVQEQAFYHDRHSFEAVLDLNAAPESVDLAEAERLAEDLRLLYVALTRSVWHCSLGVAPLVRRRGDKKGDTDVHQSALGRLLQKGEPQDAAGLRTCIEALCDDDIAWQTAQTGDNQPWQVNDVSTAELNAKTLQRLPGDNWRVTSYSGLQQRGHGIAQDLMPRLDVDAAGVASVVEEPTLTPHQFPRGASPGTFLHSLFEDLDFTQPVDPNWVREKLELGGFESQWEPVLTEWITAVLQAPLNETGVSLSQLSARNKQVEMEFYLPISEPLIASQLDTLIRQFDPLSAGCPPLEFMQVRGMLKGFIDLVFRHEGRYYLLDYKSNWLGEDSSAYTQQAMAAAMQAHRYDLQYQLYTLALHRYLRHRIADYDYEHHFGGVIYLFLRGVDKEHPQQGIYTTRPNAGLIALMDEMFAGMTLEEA", "test": "E. coli RecBCD inhibitors, dose response, counter-screen for AddAB inhibitor project, absorbance, V66 E. coli, mutant T4 phage (AID 492957)", "type": "functional, cell-based, Escherichia coli str. K-12 substr. MG1655"}, "[8]": {"test": "Luminescence Cell-Based Dose Retest to Confirm Inhibitors of Cancer Stem Cells. [Related pubchem assays (depositor defined):AID2717, AID2721]", "type": "functional", "conditions": "Homo sapiens"}, "[9]": {"test": "Counterscreen for AddAB inhibitors: absorbance-based bacterial cell-based high throughput dose response assay for inhibitors of bacterial viability. [Related pubchem assays (depositor defined):AID435030, AID449728, AID449731, AID488942, AID488955, AID488956]", "type": "functional"}, "[10]": {"biological_target": "Heat shock protein HSP 90-alpha (Homo sapiens, UniProt P07900)", "type": "functional, organism-based"}, "INS1": {"tested_on": "INS1", "test": "beta cell apoptosis inhibitors, cytokine rescue, dose response, luminescence, retest (AID 449756);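 further: cell death triggered by IL-1 beta plus TNF-alpha plus IFN-gamma mixture; protective hits raise ATP signal compared with cytokine alone wells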", "type": "functional, cell-based", "conditions": "Rattus norvegicus"}, "[11]": {"test": "inhibitors of HIV Env-driven cell fusion, dose response, cherry-pick (AID 652057)", "type": "functional, cell-based"}, "[12]": {"test": "CEM21 lymphoblast cell cytotoxicity, dose response, cytotoxicity control for viral fusion inhibitor project, CellTiter-Glo luminescence, cherry-picked (AID 652042);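 further: potency for signal decrease meaning cytotoxicity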", "type": "functional, cell-based"}, "[13]": {"test": "ZM109 Env clade C HIV-1 fusion inhibitors, dose response, HeLa effector, CEM target cells, luciferase, cherry-pick (AID 652058)", "type": "functional, cell-based"}, "[14]": {"test": "off-target signal loss in HeLa-CEM21 co-culture – HeLa F-luc CTL cells, cherry-picked, counter-screen for HIV-1 Env fusion inhibitor project, dose response (AID 652040);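 further: potency for signal decrease marking cytotoxic or nonspecific inhibition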", "type": "functional, cell-based"}, "[15]": {"test": "inhibitors of clade B AD8 Env fusion, dose response, cell-based, cherry-pick (AID 652062);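 further: potency is for inhibitors of fusion seen as a drop in luminescence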", "type": "functional"}}, "note": "Activity calls are given as the source filed them."}
{"smiles": "O=C(Nc1ccc(N2CCN(C(=O)c3ccccc3)CC2)cc1)c1ccc([N+](=O)[O-])o1", "values": [{"measurement": "CC50", "setting": "HeLa", "value": "7.65 µM (active)"}, {"measurement": "IC50", "setting": "[1]", "value": "1.64 µM (active)"}, {"measurement": "IC50", "setting": "[2]", "value": "12.7 µM (not active)"}, {"measurement": "EC50", "setting": "[3]", "value": "8.79 µM (active)"}, {"measurement": "AC50", "setting": "[4]", "value": "17.9 µM (active)"}, {"measurement": "AC50", "setting": "Paired box protein Pax-8", "value": "3.92 µM (active)"}]}
{"smiles": "OC1c2cc(Cl)cc(Cl)c2N=C2CCCN21", "note": "(stereo not drawn)", "values": [{"measurement": "CC50", "setting": "Vero", "value": "> 200 µM (active)"}, {"measurement": "IC50", "setting": "[5]", "value": "< 0.26 µM (active)"}, {"measurement": "EC50", "setting": "Kallikrein-7", "value": "48.5 µM (inactive)"}]}
{"smiles": "N#C/C(=C\\c1ccc(N2CCOCC2)o1)C(=O)N1CCOCC1", "values": [{"measurement": "IC50", "setting": "Leucine aminopeptidase", "value": "99.7 µM (active)"}, {"measurement": "EC50", "setting": "[6]", "value": "> 100 µM (active)"}]}
{"smiles": "O=C(CCCCCn1c(=S)[nH]c2ccccc2c1=O)N1CCC(N(Cc2ccccc2)c2ccccc2)CC1", "values": [{"measurement": "IC50", "setting": "Estrogen receptor", "value": "0.12 µM (not active)"}]}
{"smiles": "COc1cccc(/C=N/Nc2ncc(C(F)(F)F)cc2Cl)c1O", "values": [{"measurement": "IC50", "setting": "[7]", "value": "26.8 µM (not active)"}, {"measurement": "IC50", "setting": "Exodeoxyribonuclease V", "value": "> 119 µM (inactive)"}, {"measurement": "AC50", "setting": "[8]", "value": "0.469 µM (active)"}, {"measurement": "IC50", "setting": "[9]", "value": "98.2 µM (inactive)"}, {"measurement": "AC50", "setting": "[10]", "value": "5.59 µM (active)"}, {"measurement": "AC50", "setting": "INS1", "value": "0.584 µM (active)"}, {"measurement": "AC50", "setting": "[11]", "value": "1.37 µM (active)"}, {"measurement": "AC50", "setting": "[12]", "value": "2.15 µM (active)"}, {"measurement": "AC50", "setting": "[13]", "value": "1.45 µM (active)"}, {"measurement": "AC50", "setting": "[14]", "value": "17.4 µM (active)"}, {"measurement": "AC50", "setting": "[15]", "value": "7.04 µM (active)"}]}
